Each structure is given as a SMILES string.

The values that follow come from patent publication US20200360349A1, “ADMINISTRATION OF MONOBACTAM FOR THE TREATMENT OF URINARY TRACT INFECTION” (Novartis AG, priority 2017, published 2020).

Data set [1] is described as follows: Safety and tolerability of single doses of LYS228. The class given is in vivo, human. To be noted: following single doses up to 6000 mg. An excerpt: and including any ionic species thereof is a compound with antibacterial activity (See PCT Application No. PCT/US2015/022011, which is incorporated herein by reference). […] LYS228 kills bacteria by inhibiting cell wall synthesis through covalent modification of the active site serine of penicillin binding protein 3 (PBP3). Aztreonam is the only monobactam approved for clinical use (Tunkel and Scheld Infect Control Hosp Epidemiol p. 486-94, 1990). MBL-expressing Enterobacteriaceae can inactivate all classes of (3-lactam drugs, except monocyclic (3-lactams like the monobactams. MBLs are frequently co-expressed with SBLs. The prevalence of strains expressing the New Delhi metal-β-lactamase-1 (NDM-1) is as high as 12% in clinical isolates from patients with invasive infections in India (Biedenbach et al Antimicrob. Agents Chemother. p. 826-30, 2015, Rahman et al India. Int. J. Antimicrob. Agents p. 30-7, 2014); infections caused by strains expressing NDM-1 and other MBLs have been detected globally, including in Europe, the United States, China, and Japan (Kazmierczak et al Antimicrob. Agents Chemother. p. 1067-78, 2016). […]

The subject of data set [2] is Gram-negative bacteria, including strains that show resistance to other monobactams. To be noted: cited from earlier work.

Turning to `Nc1nc(/C(=N/OC2(C(=O)O)CC2)C(=O)N[C@@H]2C(=O)N(S(=O)(=O)O)[C@@H]2CN2CCOC2=O)cs1` [LYS228, 1-(((Z)-(1-(2-aminothiazol-4-yl)-2-oxo-2-(((3S,4R)-2-oxo-4-((2-oxooxazolidin-3-yl)methyl)-1-sulfoazetidin-3-yl)amino)ethylidene)amino)oxy)cyclopropanecarboxylic acid], the safety and tolerability entry in data set [1] is “safe and well-tolerated”. In addition, the “activity against Gram-negative bacteria” value in data set [2] is “strong activity”.
